Source: patent US20260053958A1, “HALOGENATED SOMATOSTATIN ANALOGS WITH MULTIPLE SOMATOSTATIN RECEPTOR SUBTYPE SELECTIVITY” (GRAFTON THERAPEUTICS SÀRL, priority 2022, published 2026)
Numbered stars: 1 amine (or outer) side, 2 acyl side, 3 side chain; on linkers, the order of the positions; unused ones are H or OH. Bridge positions count the residues as written; N and C are the ends. Square brackets hold non-standard residues; d marks the D form. Peptide text beside a SMILES is read from it. ξ: configuration not given here. Tyr(3-Br) = N[C@@H](Cc1ccc(O)c(Br)c1)C(=O)O; Tyr(3-Cl) = N[C@@H](Cc1ccc(O)c(Cl)c1)C(=O)O; X2 = Nc1ccc(C[C@@H](N[*:1])C(=O)[*:2])cc1Br; X3 = Nc1ccc(C[C@@H](N[*:1])C(=O)[*:2])cc1Cl; X1 = Nc1ccc(C[C@@H](N[*:1])C(=O)[*:2])cc1F; Tyr(3-F) = N[C@@H](Cc1ccc(O)c(F)c1)C(=O)O; Thr(3ξ) = CC(O)[C@H](N)C(=O)O

Columns and labels:
SST2 [1] = biological target: T1, SST2 (Homo sapiens, UniProt P30874); assay: Radioligand binding competition assay against [125I]SS-14, SST2; parameters: expressed in transfected cells; host or cells: CHO-K1 (membrane extracts); settings: CHO-K1 membrane extracts
Method: (§1) Reference values thus obtained were compared to historical values obtained from the same receptor and used to validate the experimental session. […] For replicate determinations, the maximum variability tolerated in the test was ±20% around the average of replicates.
(§2) For the SST2 assay, membrane extracts from CHO-K1 cells (accession number NP_001041.1) were used. For the SST5 assay, membrane extracts from CHO-K1 cells (accession number NP_001044.1) were used.
(§3) Nonspecific binding was determined by co-incubation with 200-fold excess of the cold competitor […]. The samples were incubated at a final volume of 0.1 mL at a temperature and for a duration optimized for each receptor and then filtered over filter plates. Filters were washed six times with 0.5 mL of ice-cold washing buffer (optimized for each receptor) and 50 μL of Microscint™ 20 (Packard) were added in each well. The plates were incubated 15 minutes on an orbital shaker and then counted with a TopCount™ for 1 min/well.

SST5 = biological target: T2, SST5 (Homo sapiens, UniProt P35346); assay: Radioligand binding competition assay against [125I]SS-14, SST5; settings: CHO-K1 membrane extracts
T2 construct: expressed in transfected cells; host or cells: CHO-K1 (membrane extracts)
Method: as §1, §2, §3

AtT-20 cells = assay: Inhibition of ACTH release from AtT-20 cells (ELISA); assay type: cell-based, mouse; settings: 72 hours, in comparison to untreated AtT-20 cells
Method: AtT-20 cells were seeded in 24-well plates (20,000 cells/well) in complete culture medium and incubated overnight at standard incubator conditions (37° C., 5% CO2) to promote adhesion.
(§4) All compounds were studied at concentrations of 5 nM and 10 nM; untreated cell controls were also studied. A biological duplicate was reproduced for each concentration of each drug. The treatment exposure period was 72 h. At the 72 h time-point, cell supernatant was collected and deposited into 1.5 mL test tubes that were then centrifuged at 13,400 rpm for 5 minutes to remove any cell residues. The samples were stored at −80° C. until the time of analysis.
ACTH levels were quantified using a Sandwich-ELISA technique ((Abcam Mouse/Rat ACTH ELISA Kit #ab263880) according to the manufacturer's instructions. Samples and standards were added individually to the wells, followed by the antibody mix. After incubation, the wells were washed to remove unbound material, and development solution was added, which was catalysed, and the reaction was subsequently stopped. The signal was generated proportionally to the amount of bound analyte and the intensity was measured at 450 nm. Results are shown in Table 8 and in FIG. 4A-4E.

GH3 cells = assay: Inhibition of GH release from GH3 cells (ELISA); assay type: cell-based, rat; settings: 72 hours, in comparison to untreated GH3 cells
Method: as §4
GH levels in the supernatant were quantified using a Sandwich ELISA assay (Millipore Rat/Mouse Growth Hormone ELISA kit #EZRMGH-45K) according to the manufacturer's instructions. This method involved the initial capture of supernatant rat GH to the wells of a microtiter plate coated by a pre-titered amount of anti-Growth Hormone polyclonal antibodies. Unbound GH was washed away and then a second biotinylated anti-GH polyclonal antibody was bound to the captured GH molecules. Unbound GH was again washed away and there followed a step of conjugation of horseradish peroxidase to the immobilized biotinylated antibodies. After a final wash step, immobilized antibody-enzyme conjugates were quantified using horseradish peroxidase activities in the presence of the substrate 3,3′,5,5′-tetramethylbenzidine. The enzyme activity was measured spectrophotometrically. Concentrations of rat GH were derived by interpolation from a reference curve generated in the same assay with reference standards of known concentrations of rat GH.

NT-3 cells [2] = assay: Inhibition of insulin release from NT-3 cells (ELISA); assay type: cell-based, human; settings: 5 days, in comparison to untreated NT-3 cells
Method: For the study, 24-well plates were coated with 1 mg/ml of human placenta-derived type IV collagen in 950 μL of PBS) and fully dried. NT3 cells were seeded at a density of 20,000 cells/well in complete culture medium (0.5 ml), including growth factors and incubated overnight at 37° C., with 5% CO2.
All drugs were administered at 5 nM and 10 nM and biological duplicates were studied. The treatment exposure period was 5 days. Untreated cell controls were also studied. After 5 days, the supernatants were collected and deposited into 1.5 ml test tubes that were then centrifuged at 13,400 rpm for 5 minutes to remove any cell residue. The samples were stored at −80° C. until the time of analysis.
Secreted insulin levels in the supernatant were studied using a Sandwich-ELISA method (Elabscience® Human Insulin ELISA Kit #E-EL-H2665) according to the manufacturer's instructions. A micro-ELISA plate was pre-coated with an antibody specific to human insulin. Samples or Standards were added to the micro-ELISA plate wells and combined with the specific antibody. Then a biotinylated detection antibody specific for human insulin and Avidin-Horseradish Peroxidase (HRP) conjugate were added successively to each micro plate well, incubated and then washed. Substrate solution was added to each well. Only those wells that contain human insulin, biotinylated detection antibody and Avidin-HRP conjugate appear blue in color. The enzyme-substrate reaction was terminated by the addition of stop solution. The optical density (OD) was measured spectrophotometrically at a wavelength of 450 nm±2 nm, and the concentration of human insulin was then derived from the standard curve.

SST2 [3] = biological target: T1, SST2; assay: cAMP HTRF assay; assay type: cell-based; parameters: expressed in transfected cells; host or cells: CHO-K1; settings: CHO-K1 cells expressing SST2, forskolin, 30 min
Method: as §1
CHO-K1 cells (accession number NP_001041.1) expressing human recombinant receptor SST2 were grown prior to the test in media without antibiotic and were detached by gentle flushing with PBS-EDTA (5 mM EDTA).
In a 96-well plate, 12 μl of cells were mixed with 6 μl of the test compound at increasing concentrations and 6 μl of forskolin, then incubated for 30 min at room temperature. The final concentrations of test compound were 0.003 nM; 0.01 nM; 0.03 nM; 0.1 nM; 0.3 nM; 1 nM; 3 nM; 10 nM; 30 nM; and 100 nM. After addition of lysis buffer containing cAMP-d2 and anti-cAMP cryptate detection reagents, the plates were incubated for one hour at room temperature, and fluorescence ratios were measured using an HTRF kit according to the manufacturer specification. The results are shown below in Table 1 and in FIGS. 1A-1D.

NT-3 cells [4] = assay: Inhibition of proliferation of NT-3 cells (WST-1 assay); assay type: cell-based, human; settings: 5 nM, 5 days, in comparison to untreated NT-3 cells
Description: The water-soluble tetrazolium-1 (WST-1) assay is a standard method for assessing cell viability and proliferation in vitro. The WST-1 assay method is based on the cleavage of tetrazolium salts in culture medium to the dye, formazan, by active mitochondrial enzymes. As viable cell numbers change, so too does the action of mitochondrial dehydrogenases and cleavage of tetrazolium salts. The formation of formazan in the cell medium can be assayed spectrophotometrically as a measure of the number of living cells in the sample well. The effect of various compounds on the cell viability or proliferation rates can be measured as compared with controls or Standards.
All compounds were studied at a dose of 5 nM, and appropriate untreated controls were included.
NT-3 cells were seeded in complete RPMI-1640 medium (100 μl) into a 96-well microplate (20.000 cells/well). This was incubated at 37° C. in 5% CO2 to allow cells to adhere. Cells were treated with the test compounds at a concentration of 5 nM for a period of 5 days without changing the medium and without adding fresh compounds. […] The absorbance of the formazan dye was measured at 450 nm and 690 nm using a microplate reader. […] Average absorbance values were calculated for each group at 450 and 690 nm wavelengths and corrected for blank values. […]

T2 sequence (P35346 whole entry): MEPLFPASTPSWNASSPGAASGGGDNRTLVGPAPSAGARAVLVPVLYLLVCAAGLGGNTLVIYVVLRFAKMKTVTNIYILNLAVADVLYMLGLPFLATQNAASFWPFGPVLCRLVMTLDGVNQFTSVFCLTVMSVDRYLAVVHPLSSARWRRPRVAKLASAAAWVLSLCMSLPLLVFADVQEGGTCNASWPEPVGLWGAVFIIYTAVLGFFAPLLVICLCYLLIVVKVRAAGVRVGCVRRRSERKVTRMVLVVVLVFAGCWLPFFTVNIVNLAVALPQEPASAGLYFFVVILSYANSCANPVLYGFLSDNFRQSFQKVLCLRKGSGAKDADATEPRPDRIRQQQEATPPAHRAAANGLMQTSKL
T1 sequence (P30874 whole entry): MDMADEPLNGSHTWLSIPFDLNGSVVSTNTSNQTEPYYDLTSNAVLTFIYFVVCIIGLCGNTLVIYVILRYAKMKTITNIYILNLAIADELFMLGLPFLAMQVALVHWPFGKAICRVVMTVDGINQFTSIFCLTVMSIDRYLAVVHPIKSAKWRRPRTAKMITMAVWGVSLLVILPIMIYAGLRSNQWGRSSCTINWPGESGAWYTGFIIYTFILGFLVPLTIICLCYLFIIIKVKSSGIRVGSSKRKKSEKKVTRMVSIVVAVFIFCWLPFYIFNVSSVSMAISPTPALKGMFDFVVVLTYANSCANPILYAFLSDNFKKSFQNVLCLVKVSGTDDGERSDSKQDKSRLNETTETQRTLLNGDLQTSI

Structure (SMILES) | IC50 (SST2 [1]; Table 2, first assay (Day 1)) [nM] | IC50 (SST5; Table 6, second assay (Day 2)) [nM] | Fold Change in Measured ACTH (AtT-20 cells; 5 nM) | Fold Change in Measured ACTH (AtT-20 cells; 10 nM) | Fold Change in Measured GH (GH3 cells; 5 nM) | Fold Change in Measured GH (GH3 cells; 10 nM) | Fold Change in Measured Insulin (NT-3 cells [2]; 5 nM) | Fold Change in Measured Insulin (NT-3 cells [2]; 10 nM) | EC50 (SST2 [3]) [nM] | IC50 (SST2 [1]; Table 3, second assay (Day 2)) [nM] | IC50 (SST5; Table 7, third assay (Day 3)) [nM] | Fold Change in Proliferation (NT-3 cells [4]) | IC50 (SST2 [1]; Table 4, third assay (Day 3)) [nM]
CC(C)[C@@H]1NC(=O)[C@H](CCCCN)NC(=O)[C@@H](Cc2c[nH]c3ccccc23)NC(=O)[C@H](Cc2ccc(O)c(Cl)c2)NC(=O)[C@H](NC(=O)[C@H](N)Cc2ccc(N)c(I)c2)CSSC[C@H](C(=O)N[C@H](C(N)=O)C(C)O)NC1=O (single isomer, unassigned) [Compound 1, (4-amino-3-I)-D-Phe-c[Cys-(3-Cl)-Tyr-D-Trp-Lys-Val-Cys]-Thr-NH2] | 0.37 |  |  |  |  |  |  |  |  |  |  |  | 
CC(C)[C@@H]1NC(=O)[C@H](CCCCN)NC(=O)[C@@H](Cc2c[nH]c3ccccc23)NC(=O)[C@H](Cc2ccc(O)c(Cl)c2)NC(=O)[C@H](NC(=O)[C@H](N)Cc2ccc(N)c(I)c2)CSSC[C@H](C(=O)N[C@H](C(N)=O)C(C)O)NC1=O (single isomer, unassigned) [Compound 2, (4-amino-3-Cl)-D-Phe-c[Cys-(3-I)-Tyr-D-Trp-Lys-Val-Cys]-Thr-NH2] | 0.74 |  |  |  |  |  |  |  |  |  |  |  | 
CC(C)[C@@H]1NC(=O)[C@H](CCCCN)NC(=O)[C@@H](Cc2c[nH]c3ccccc23)NC(=O)[C@H](Cc2ccc(O)c(Cl)c2)NC(=O)[C@H](NC(=O)[C@H](N)Cc2ccc(N)c(Cl)c2)CSSC[C@H](C(=O)N[C@H](C(N)=O)C(C)O)NC1=O (stereo partly drawn) [Compound 3, (4-amino-3-Cl)-D-Phe-c[Cys-(3-Cl)-Tyr-D-Trp-Lys-Val-Cys]-Thr-NH2] (H-[X3][dC][Tyr(3-Cl)][dW]KV[dC][Thr(3ξ)]-NH2; disulfide 2-7) |  | 0.86 | 0.68 | 0.76 | 1.04 | 1.02 | 0.62 | 0.56 | 0.25 | 0.48 |  |  | 
CC(C)[C@@H]1NC(=O)[C@H](CCCCN)NC(=O)[C@@H](Cc2c[nH]c3ccccc23)NC(=O)[C@H](Cc2ccc(O)c(F)c2)NC(=O)[C@H](NC(=O)[C@H](N)Cc2ccc(N)c(F)c2)CSSC[C@H](C(=O)N[C@H](C(N)=O)C(C)O)NC1=O (stereo partly drawn) [Compound 4, (4-amino-3-F)-D-Phe-c[Cys-(3-F)-Tyr-D-Trp-Lys-Val-Cys]-Thr-NH2] (H-[X1][dC][Tyr(3-F)][dW]KV[dC][Thr(3ξ)]-NH2; disulfide 2-7) |  |  | 0.37 | 0.37 | 0.94 | 0.76 | 0.09 | 0.10 | 1.91 |  | 3.41 | 0.93 | 2.6
CC(C)[C@@H]1NC(=O)[C@H](CCCCN)NC(=O)[C@@H](Cc2c[nH]c3ccccc23)NC(=O)[C@H](Cc2ccc(O)c(Br)c2)NC(=O)[C@@H](NC(=O)[C@H](N)Cc2ccc(N)c(Br)c2)CSSC[C@@H](C(=O)N[C@H](C(N)=O)[C@@H](C)O)NC1=O [Compound 5, (4-amino-3-Br)-D-Phe-c[Cys-(3-Br)-Tyr-D-Trp-Lys-Val-Cys]-Thr-NH2] (H-[X2]C[Tyr(3-Br)][dW]KVCT-NH2; disulfide 2-7) |  |  | 0.68 | 0.77 | 0.72 | 0.75 | 0.12 | 0.18 | 0.16 |  | 0.79 | 0.52 | 0.54
